For this assay, the target named is glycoprotein B (gB) (Human alphaherpesvirus 1 strain 17, UniProt P10211). The experiment in a line: surface plasmon resonance. The assay is classed as binding. For orientation: SPR reads the build-up and loss of mass on a sensor chip optically.

`C=C1CC/C=C(\C)CC[C@@H]2[C@@H]1CC2(C)C` [BCP, β-caryophyllene] gave a Kd of 4.26 µM.

Broadly, the Kd is the concentration at which binding is half-saturated. A low value points to a tighter complex.

For the origin of these results see article PMC12239253 (BMC Complementary Medicine and Therapies, 2025).
